What was measured:
[1] = root beer, buffered pH about 11, integrated absorbance 440 to 700 nm vs control without CIP composition; ppm of active as per example
Procedure: For each of the five (5) experiments below, two quartz UV cells having a path length of 5.0 cm were each charged with 5.95 mL of a 0.1 molar sodium phosphate solution (to establish a buffered pH of about 11). The first cell was further charged with 0.6 mL of neat (conventional) root beer, as made commercially available. The second cell was further charged with 0.6 mL deionized water. Using the contents of the second cell as the blank, the absorbance of the resulting root beer solution was determined over the range of 440 to 700 nm, using a Hewlett-Packard 8452 UV/vis spectrophotometer. The absorbance over this wavelength range was integrated, and the percent (%) reduction in color of root beer was based on a comparison to the integrated absorbance of the control to which no CIP composition has been added.

Lactobacillus brevis = assay: Suspension test, percent microbes killed by CIP composition; format: cell-based; details: suspension 8.2 log bacteria/mL, 50 ppm CaCO3
Procedure: (§1) American Type Culture Collection cultures were transferred daily and maintained on agar slants containing the appropriate growth medium^1. A loopful of the culture was transferred into 10 ml of Butterfield's phosphate buffer pH 7.2 (NutraMax Products, Inc.) and agitated to obtain a homogeneous turbid suspension. The actual concentration of microbes in suspension was estimated by its serial dilution in Butterfield's phosphate buffer and subsequent transfer of 0.1 ml of the dilution series into a Petri plate containing the appropriate agar growth medium. The inoculated Petri plates were incubated for 48-72 hours (at about 37° C.) and the resulting colonies counted with a Quebec colony counter. The number of colonies on the Petri plates multiplied by the serial dilution factor is equal to the number of microbes in 0.1 ml of inoculum.
(§2) Suspension test: 1 ml of each microbial suspension was mixed with 9 ml of each CIP composition containing 50 ppm CaCO3 at 10/9 of the recommended use concentration (RUC) so that final concentration was exact RUC. After contact times described above, 1 ml of the mixture was put to 9 ml of neutralizer^2 from which 0.1 ml of sample was plated onto the appropriate agar and incubated at 28° C. for 48-72 hours before counting. The number of colonies present on the Petri plates multiplied by the serial dilution factor is equal to the number of microbes in 0.1 ml that survived in the sanitizer solution.
(§3) The per cent microbes killed by CIP composition is calculated by using the following equation: […]
(§4) One (1) mL of suspension and 9.0 mL of CIP composition were combined, resulting in the above data. The pH of the chlorine dioxide CIP composition was 5.8, the mixed halogen is sold by DiverseyLever under the name of Divosan MH and the peroxyacetic acid was an aqueous solution having about 65% water.

Rhizopus stolonifer = assay: as above; format: cell-based; details: suspension 7.5 log bacteria/mL, 50 ppm CaCO3
Procedure: as §1, §2, §3, §4

Candida Albicans = assay: as above; format: cell-based; details: suspension 8.0 log bacteria/mL, 50 ppm CaCO3
Procedure: as §1, §2, §3, §4

Bacillus cerus = assay: as above; format: cell-based; details: suspension 8.5 log bacteria/mL, 50 ppm CaCO3
Procedure: as §1, §2, §3, §4

Byssochlamys nivea = assay: as above; format: cell-based; details: suspension 8.1 log bacteria/mL, 50 ppm CaCO3
Procedure: as §1, §2, §3, §4

Zygosaccharomyces bailii = assay: as above; format: cell-based; details: suspension 8.5 log bacteria/mL, 50 ppm CaCO3
Procedure: as §1, §2, §3, §4

Structure (SMILES) | % Reduction of Color [1] [%] | percent bacteria killed, Lactobacillus brevis (Lactobacillus brevis; contact 2 minutes) [%] | percent bacteria killed, Rhizopus stolonifer (Rhizopus stolonifer; contact 30 seconds) | percent bacteria killed, Rhizopus stolonifer (Rhizopus stolonifer; contact 2 minutes) [%] | percent bacteria killed, Candida Albicans (Candida Albicans; contact 2 minutes) | percent bacteria killed, Bacillus cerus (Bacillus cerus; contact 2 minutes) [%] | percent bacteria killed, Byssochlamys nivea (Byssochlamys nivea; contact 30 seconds) | percent bacteria killed, Byssochlamys nivea (Byssochlamys nivea; contact 2 minutes) | percent bacteria killed, Zygosaccharomyces bailii (Zygosaccharomyces bailii; contact 2 minutes) [%] | percent bacteria killed, Lactobacillus brevis (Lactobacillus brevis; contact 30 seconds) [%] | percent bacteria killed, Candida Albicans (Candida Albicans; contact 30 seconds) | percent bacteria killed, Bacillus cerus (Bacillus cerus; contact 30 seconds) [%] | percent bacteria killed, Zygosaccharomyces bailii (Zygosaccharomyces bailii; contact 30 seconds)
[O][Cl+][O-] [Example 3, chlorine dioxide] | 56.09 | – | – | – | – | – | – | – | – | – | – | – | –
[Na+].[O-]Cl [Example 4, sodium hypochlorite] | 36.49 | – | – | – | – | – | – | – | – | – | – | – | –
CC(=O)OO [Example 6, peroxyacetic acid] | 25.76 | – | – | – | – | – | – | – | – | – | – | – | –
[O][Cl+][O-] [Example 7, chlorine dioxide] | – | ~99.9999 | About 99.99% | ~99.9999 | About 99.9999% | ~99.9999 | About 99.99% | ~99.9999% | ~99.9999 | – | – | – | –
CC(=O)OO [Example 9, Peroxyacetic acid] | – | ~99.9999 | <99% | <99 | About 99.9999% | ~99.9999 | About 99.9% | About 99.99% | ~99.9999 | ~99.9999 | About 99.99% | ~99.99 | About 99.99%
